Test results published in PMC4847484, “Chemical generation and modification of peptides containing multiple dehydroalanines” (Chemical Communications (Cambridge, England), 2015).
Read-outs that look alike come from different tables or passages of the source. Positions of bridges follow the written chain, without caps; N, C: chain ends. No end group written: not given here.

Key:
[1] = target: human plasma kallikrein (Homo sapiens, UniProt P03952); assay: Kallikrein inhibition assay (residual HPK activity, fluorogenic substrate Z-Phe-Arg-AMC); assay type: biochemical
human plasma kallikrein, sequence (P03952 391-638 limits assumed): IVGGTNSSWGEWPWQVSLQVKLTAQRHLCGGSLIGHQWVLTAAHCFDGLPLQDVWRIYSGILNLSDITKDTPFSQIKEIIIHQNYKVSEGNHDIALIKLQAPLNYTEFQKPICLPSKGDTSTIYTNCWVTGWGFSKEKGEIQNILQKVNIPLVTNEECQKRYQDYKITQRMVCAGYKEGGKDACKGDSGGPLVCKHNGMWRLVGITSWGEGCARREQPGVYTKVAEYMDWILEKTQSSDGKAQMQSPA
human plasma kallikrein, sequence (P03952 20-390 partner limits assumed): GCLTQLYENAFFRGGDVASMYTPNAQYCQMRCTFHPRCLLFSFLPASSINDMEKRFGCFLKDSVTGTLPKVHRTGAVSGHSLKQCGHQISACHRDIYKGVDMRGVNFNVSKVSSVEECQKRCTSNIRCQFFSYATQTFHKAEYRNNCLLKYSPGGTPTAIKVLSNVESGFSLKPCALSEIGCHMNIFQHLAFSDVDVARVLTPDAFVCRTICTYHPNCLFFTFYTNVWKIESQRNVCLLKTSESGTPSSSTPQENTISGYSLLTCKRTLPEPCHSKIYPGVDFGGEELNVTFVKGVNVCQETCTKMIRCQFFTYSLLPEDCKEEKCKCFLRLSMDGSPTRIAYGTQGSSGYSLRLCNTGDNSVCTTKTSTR

[2] = the molecule shown is the open-chain precursor, crosslinker bond, 31-membered ring
[3] = TBMB/NH4HCO3, aq NH4HCO3 (pH 8)/MeCN, 1.67 mM

Row | Substance | ring closure, yield after HPLC [2, 3] | further results
1 | 13: stereochemically scrambled bicyclic peptide mixture from cyclisation of 12 with trithiol 2 (ACSDRFRNCPADEALCG; linker 2-9-16 via 1,3,5‑tris(mercaptomethyl)benzene; also: mixture of 8 stereoisomers (D/L at Cys2, Cys9, Cys16)) [compound 13] | – | IC50 ([1]; crude reaction mixture of the conversion of 12 to 13, before purification, same kallikrein inhibition assay): 0.238 ± 0.021 µM; IC50 ([1]; purified peptide, HPK incubated 30 min at room temperature with bicyclic peptide, substrate Z-Phe-Arg-AMC, Tris 10 mM pH 7.4, NaCl, MgCl2, CaCl2, 0.1% BSA, 0.01% Triton X-100, 5% DMSO, ex 355 / em 460 nm, logistic fit): 0.144 ± 0.031 µM
2 | H-Ala-Cys-Ser-Asp-Arg-Phe-Arg-Asn-Cys-Pro-Ala-Asp-Glu-Ala-Leu-Cys-Gly-NH2? | 29% | –
3 | H-Ala-Cys-Ser-Asp-Arg-Phe-Arg-Asn-Cys-Pro-Ala-Asp-Glu-Ala-Leu-dCys-Gly-NH2? | 10% | –
4 | H-Ala-Cys-Ser-Asp-Arg-Phe-Arg-Asn-dCys-Pro-Ala-Asp-Glu-Ala-Leu-Cys-Gly-NH2? | 16% | –
5 | H-Ala-Cys-Ser-Asp-Arg-Phe-Arg-Asn-dCys-Pro-Ala-Asp-Glu-Ala-Leu-dCys-Gly-NH2? | 24% | –
6 | H-Ala-Dha-Ser-Asp-Arg-Phe-Arg-Asn-Dha-Pro-Ala-Asp-Glu-Ala-Leu-Dha-Gly-NH2 | – | ring closure, yield after HPLC ([2]; 1,3,5-tris(mercaptomethyl)benzene/K2CO3, H2O/DMF 1:1, 1.15 mM, 37.0 °C): 43%
7 | H-Ala-dCys-Ser-Asp-Arg-Phe-Arg-Asn-Cys-Pro-Ala-Asp-Glu-Ala-Leu-Cys-Gly-NH2? | 26% | –
8 | H-Ala-dCys-Ser-Asp-Arg-Phe-Arg-Asn-Cys-Pro-Ala-Asp-Glu-Ala-Leu-dCys-Gly-NH2? | 16% | –
9 | H-Ala-dCys-Ser-Asp-Arg-Phe-Arg-Asn-dCys-Pro-Ala-Asp-Glu-Ala-Leu-Cys-Gly-NH2? | 26% | –
10 | H-Ala-dCys-Ser-Asp-Arg-Phe-Arg-Asn-dCys-Pro-Ala-Asp-Glu-Ala-Leu-dCys-Gly-NH2? | 26% | –
